Measurements: patent US7288558B2, “Pharmaceutical composition for treatment for urinary diseases comprising LPA receptor regulator” (Ono Pharmaceuticals Co., Ltd., priority 2001, dated 2007)

Legend:
urethra [1] = test: Measurement of urethral pressure by drugs in pithed male rats, i.v.; format: in vivo, rat; parameters: key to urethral pressure: ↑: increase; (—): no effect; settings: for urethral pressure / urethral pressure (increase): male pithed rats; for urethral pressure: class symbol; for intraurethral pressure: 1 mg/kg i.v.
Description: Male CD(SD)IGS rats (Charles River Japan Inc., 8-9 week-old in use) were anesthetized by intraperitoneal administration of sodium pentbarbital (50 mg/kg). After incision of cervical median, broncho cannula and arterial catheter were inserted. The measurement of blood pressure was started via arterial catheter and subsequently a stainless-steel rod was inserted into the spinal column through the orbit and foramen magnum for the destruction of the spinal cord. The broncho cannula was connected to the artificial breathing device for small animals (SN-480-7, Shinano, Tokyo, Japan) immediately and the animals were ventilated artificially with room air in a tidal volume of 6 mL/kg body weight at a rate of 70 breaths/min. After confirming the gentle decrease of blood pressure and stabilization of the blood pressure at the low level indicating a success of destruction of the spinal cord, intravenous catheter was inserted into femoral vein for drug administration. Urinary bladder was exposed by incision of hypogastrium median and urethra was tied off in the vicinity of pubic bone. Urethra catheter was inserted into urethra through dome of urinary bladder and fixed by ligation at the bladder neck. Urethra catheter was connected to the pressure transducer and urethral pressure was measured. Subsequently, urethral pressure was adjusted about 20 mmHg and left for about 1 hour. After it was confirmed stability of urethral pressure, and subsequently 10 μg/kg/0.5 ml phenylephrine was administrated and it was confirmed that urethral pressure increased. Various drugs included 18:3-LPA were estimated 0.5 ml/kg in the same way.

colon and ileum = settings: rats, literature; cited from earlier work
micturition = test: Cystometry in anesthetized female rats with intravenous infusion of LPA; format: in vivo, rat; settings: infusion rate 15 mg/kg/hr/3 mL i.v.
Text: Female CD(Sprague-Dawley)IGS rats (Charles River Japan Inc., 12 to 13 weeks old in use) were anesthetized with an s.c. administration of urethane (1.2 g/kg) and placed in a supine position and the bladder and proximal urethra were exposed through a midline abdominal incision. The ureters were tied with silk suture distally and cut. Bladder was exposed and a polyethylene catheter (JMS cutdown tube, C3) was inserted through the bladder dome and secured with a ligature. The other side of the catheter was connected to a pressure transducer through two T tubes to measure intravesical pressure. Another side of T tubes was connected to an infusion pump for performing cystometrograms (the other side of T tube was connected to a syringe). The carotid artery was cannulated to measure blood pressure and the jugular vein was cannulated to administration of the test compounds. Rats in which the above mentioned operation was performed were placed to 37° C. thermostat plate and citric acid solution (pH4.0) or saline were infused into bladder at the rate of 2.85 mL/hr. After cystometrograms show rhythmic reflex saline was infused via jugular vein at the infusion rate of 3 mL/kg/hr. After an appropriate time 18:3-LPA prepared with 5 mg/mL was infused at the infusion rate of 3 mL/kg/hr. After the 18:3-LPA infusion was stopped saline was infused again. […]

[2] = test system: isolated urethral preparations; test: Measurement of urethra contraction, isolated female rat urethral preparations (Magnus tube); format: cell-based
Text: After sacrificing female CD(SD)IGS rats (Charles River Japan Inc., 8-9 week-old in use) by blowing heads and exsanguinating from jugular vein, urethra under pubis was isolated carefully and soaked in Krebs-Henseleit solution (112 mmol/L NaCl, 5.9 mmol/L KCl, 2.0 mmol/L CaCl2, 1.2 mmol/L MgCl2, 1.2 mmol/L NaH2PO4, 25.0 mmol/L NaHCO3, 11.5 mmol/L glucose) immediately. Urethra part was cut from isolated sample, and was dissected in flat and subsequently was cut parallel to circular muscle. Thus, 2-3 strips of sample that are 3-4 mm long by 2-3 mm wide were made.
(§1) The made samples were suspended in the Magnus tube (volume: 10 mL) filled by Krebs-Henseleit solution (vented by 37±1° C., mixed gas [95% O2+5% CO2]). The samples were added about 0.5 g tension and stabilized for 60 min, and subsequently the contractile activity was recorded on recorder (linearcoder WR3320: GRAPHTEC CORP., thermal pen-writing recorder RJG-4128: Nihon Kohden Ltd) via a pressure amplifier (AP-641G, AP-601G, Nihon Kohden Ltd) from isometric transducer (Force displacement transducer) (FD pick-up TB-611T: Nihon Kohden Ltd).
The contractile reaction of control was given by stimulation of high concentration KCl solution (solution replaced all NaCl with KCl). By the addition of LPA and phenylephrine (comparison compound: α agonist) cumulatively, dose-dependency of urethra contraction was measured. […]

[3] = test system: isolated prostatic preparations; test: Contractile test of isolated prostate, male rats (Magnus tube); format: cell-based; settings: isolated male rat prostate
Text: After sacrificing male CD(SD)IGS rats (Charles River Japan Inc., 8-9 week-old in use) by blowing heads and exsanguinating from jugular vein, prostate was isolated and soaked in iced Krebs-Henseleit solution (112 mmol/L NaCl, 5.9 mmol/L KCl, 2.0 mmol/L CaCl2, 1.2 mmol/L MgCl2, 1.2 mmol/L NaH2PO4, 25.0 mmol/L NaHCO3, 11.5 mmol/L glucose) immediately. Prostate was separated right-and-left part from isolated sample, fatty tissue was removed and longitudinal strips (2 to 3 strips) were isolated from a prostate lobe.
as §1, with “were” for “were added about 0.5 g tension and”, “min and added about 0.5-1 g tension,” for “min,”, “AP-601G:” for “AP-601G,”, “Ltd). 0.01-10 μM phenylephrine was added in Magnus tube. The contraction by 10 μM phenylephrine is the contractile reaction of control. […] After the samples were suspended, it was washed over and over, opportunity. […]” for “Ltd).”

EDG-2 = EDG-2 (Homo sapiens, UniProt Q92633); settings: EDG-2 over-expressed cell, specification of WO01/60819; cited from earlier work
[4] = test system: LPA dependent contraction in rat isolated urethra; test: Inhibitory activity for LPA dependent contraction in rat isolated urethra; format: cell-based; settings: isolated male rat urethra, 10 μM LPA
Text: Male CD(SD)IGS rats (Charles River Japan Inc., 8-9 week-old in use) anesthetized by diethyl ether were sacrificed by taking blood from the descending aorta, and subsequently urethra under pubis was isolated with urinary bladder and vesicular gland carefully and soaked in Krebs-Henseleit solution (112 mmol/L NaCl, 5.9 mmol/L KCl, 2.0 mmol/L CaCl2, 1.2 mmol/L MgCl2, 1.2 mmol/L NaH2PO4, 25.0 mmol/L NaHCO3, 11.5 mmol/L glucose) immediately. Urethra was cut from extracted sample and was dissected on the side of abdominal in flat with scissors for ophthalmic surgery. Thus, the strip of sample that are 3-4 mm long by 2-3 mm wide was made. […] The samples were added about 0.5 g tension and stabilized for 60 min, and subsequently the contractile activity was recorded on recorder (linearcoder WR3320: GRAPHTEC CORP., thermal pen-writing recorder RJG-4128: Nihon Kohden Ltd) via a pressure amplifier (AP-641G, AP-601G, Nihon Kohden Ltd) from Force displacement transducer (FD pick-up TB-611T: Nihon Kohden Ltd). […]
In other words, the isolated urethra was stimulated repeatedly by 10 μM LPA until a constant response was attained. […] Then the urethral contraction was monitored (post value). The inhibitory activity of compound A was calculated as the inhibition (%)={1-(post value)/(pre value)}×100. […]

urethra [5] = test: Rat urethral pressure in vivo after intravenous compound A; settings: male rats, 3 mg/kg i.v.
Text: Male CD(SD)IGS rats (Charles River Japan Inc., 8-9 week-old in use) were anesthetized by subcutaneous administration of 1.2 g/kg urethane. After incision of cervical median, jugular vein catheter for administration of compound and arterial catheter for measurement of blood pressure were inserted. Subsequently, an incision in the hypogastrium median was made and urethra was tied off in the vicinity of pubic bone. Urethral catheter was inserted into urethra by cutting open dome of urinary bladder and fixed by ligation in of the bladder neck. Another end of urethral catheter was connected to the pressure transducer and urethral pressure was measured. Urethral pressure was adjusted about 20 mmHg and left at rest until it was stabilized (for about 20 minutes). Subsequently, compound A was administrated intravenously and blood pressure and urethral pressure were measured for 20 minutes, and then in order to monitor the base-line value of the intraurethral pressure 1 mL of pentobarbital was intraveniously injected. After the intraurethral pressure was decreased to the prolonged plateau, it was estimated as a base-line value. Compound A was administrated intraveniously (3 mg/kg, 1 mL/kg). Vehicle was confirmed as 10% DMSO-90% rat plasma solution. […]

Sequence of EDG-2 (Q92633 whole entry): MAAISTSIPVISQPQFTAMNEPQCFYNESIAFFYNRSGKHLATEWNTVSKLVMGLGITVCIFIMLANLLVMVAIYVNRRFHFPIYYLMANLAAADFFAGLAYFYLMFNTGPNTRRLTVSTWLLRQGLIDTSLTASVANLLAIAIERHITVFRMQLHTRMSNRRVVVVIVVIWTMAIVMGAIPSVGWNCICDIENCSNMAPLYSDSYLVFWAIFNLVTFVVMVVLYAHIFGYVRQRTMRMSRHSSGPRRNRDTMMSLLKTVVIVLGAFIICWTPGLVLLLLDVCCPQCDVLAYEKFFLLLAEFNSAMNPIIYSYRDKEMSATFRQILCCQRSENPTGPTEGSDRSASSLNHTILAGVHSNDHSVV

SMILES: CC/C=C\C/C=C\C/C=C\CCCCCCCC(=O)OC[C@@H](O)COP(=O)([O-])OCC[N+](C)(C)C [LPC (18:3), 1-linolenoyl (18:3)-LPC (lysophosphatidyl choline)]
- urethral pressure (urethra [1]; dose 1 mg/kg i.v.): —
- intraurethral pressure (urethra [1]; pithed rat, in words): hardly increase

SMILES: CNC[C@H](O)c1cccc(O)c1 [L-phenylephrine]
- urethral pressure (increase) (urethra [1]; dose 10 μg/kg i.v.): 7.5 mmHg

SMILES: CC/C=C\C/C=C\C/C=C\CCCCCCCC(=O)OCC(O)CO (centres unmarked) [1-monolinolenoyl (18:3)-glycerol]
- urethral pressure (urethra [1]; dose 1 mg/kg i.v.): —
- intraurethral pressure (urethra [1]; pithed rat, in words): hardly increase

SMILES: CCCCCCCCCCCCCCCC(=O)OCC(O)COP(=O)(O)O (centres unmarked) [(16:0)-LPA, 1-palmitoyl lysophosphatidic acid]
- activity for the contraction of colon and ileum (colon and ileum): also have the activity

SMILES: CCCCC/C=C\C/C=C\CCCCCCCC(=O)OC[C@@H](O)COP(=O)(O)O [(18:2)-LPA, 1-linoleoyl lysophosphatidic acid]
- activity for the contraction of colon and ileum (colon and ileum): also have the activity

SMILES: CC/C=C\C/C=C\C/C=C\CCCCCCCC(=O)OC[C@@H](O)COP(=O)(O)O [18:3-LPA, 1-Linolenoyl lysophosphatidic acid]
- micturition pressure versus infusion of saline (micturition): increased
- intercontraction interval versus saline infusion (micturition; FIG. 6): shorter
- activity for the contraction of colon and ileum (colon and ileum): most potent activity
- desensitization of urethral contraction [2]: desensitization was not caused
- intensity of contraction of urethra compared with phenylephrine ([2]; cumulative addition, FIG. 1): more potent
- desensitization of prostate contraction [3]: desensitization was caused
- contraction of isolated prostate ([3]; organ bath in vitro, FIG. 2): contracts isolated urethra and prostate
- urethral pressure (increase) (urethra [1]; dose 10 μg/kg i.v.): 3.0 mmHg
- urethral pressure (increase) (urethra [1]; dose 100 μg/kg i.v.): 9.0 mmHg
- urethral pressure (increase) (urethra [1]; dose 1 mg/kg i.v.): 15.5 mmHg
- intraurethral pressure, dose dependency (urethra [1]; pithed rat, intravenous injection, in words): increased the intraurethral pressure in a dose-dependent manner

SMILES: COC(=O)CCSCc1ccc(-c2onc(C)c2NC(=O)OC(C)c2ccccc2Cl)cc1 (centres unmarked) [compound A, methyl 3-({4-[4-({[1-(2-chlorophenyl)ethoxy]carbonyl}amino)-3-methyl-5-isoxazolyl]benzyl}sulfanyl)propanoate]
- LPA receptor (EDG-2) antagonistic activity (EDG-2): potent EDG-2 antagonistic activity
- IC50 ([4]; 0.5 h, 30 min incubation at 37° C., read-out: 50% inhibitory concentration (IC50) for urethral contraction by LPA): 70 nM
- inhibition of urethral contraction by LPA ([4]; in words): inhibited the urethral contraction by LPA, dose-dependently
- maximal amounts of the decreasing intraurethral pressure, of an absolute value (pressure before injection minus base-line value) (urethra [5]): about 50%
- intraurethral pressure (urethra [5]; urethane anesthesia, versus vehicle, FIG. 5): greatly decreased
